Measured values: patent US20090208597A1, “HEAT PROCESSED VEGETABILIC FIBER PREPARATION AND ITS USE AS INHIBITOR OF THE EFFECTS OF CARCINOGENIC SUBSTANCES IN HUMANS OR ANIMALS” (ESSENTYS AB, priority 2006, published 2009)

Experiments:
BALB mice = test: Potato fiber supplemented diet in acryl amide exposed mice, histomorphology of intestine and liver (Example 1); format: in vivo; settings: acryl amide added to the drinking water; 90 days
Description: The main aim of these studies was to see if a potato fiber supplemented diet had any effect on acryl amide induced cancer development in mice.
Seventy five 9-weeks old male and seventy five 7 to 9 weeks old female BALB mice (Laboratory), weighing about 20 g, were used. Mice were housed ten per box of the same sex. Solid food and water were allowed in sufficient quantities. The animals were kept in an animal house where the humidity and temperature were controlled and where a 12 h light period was kept. The experiment has been reviewed and approved by Lund University ethic committee, application M140-03.
2/ Labodiet MLF 2% and potato fiber preparation (Povex®). The receipt of this food/feed is based on the control food/feed. The food/feed was enriched with 2% of Povex®.
3/ Labodiet MLF 2% heated potato fiber preparation (Povex®). […]
It was found suitable to use the commercial (Sigma-Aldrich, St Louis, Mo.) acryl amide for electrophoresis in the form of powder (minimum 99%). […] Before the beginning of the experiment, the water consumption during 24 h of 5 groups of mice was measured. […] This consumption was used to calculate the concentration of the two doses of acryl amide: The high dose was calculated from 2 mg/day/kg b.w. and the low dose from 0.1 mg/day/kg b.w. […] The volume left in the bottle was measured and listed in a table in order to follow the consumption of acryl amide through the water. […]

[1] = system: small intestine of male BALB mice; test: Povex in food of mice treated with acrylamide, histomorphometry of small intestine (Example 4); format: in vivo
Description: The aim of this study was to investigate if regular and heat Povex can protect small intestine against acrylamide toxic influence. The point was to establish what histological changes can acrylamide cause to small intestine tissue and if Povex can reverse or decrease these possible changes.
Three months experiment was performed on males BALB mince. Two doses of acrylamide (2 mg/day/kg b.w., and 0.1 mg/day/kg b.w.) in drinking water and two types of Povex heated (Treated) and normal (Untreated) added to food were provided for animals.
Histology and histomorphometry of small intestine was performed. The examined parameters were: fractal dimension of small intestine, mitosis inside crypts and apoptosis count per mm^2 of tissue.
Seventy-five 9-weeks old male and seventy-five 7 to 9 weeks old female BALB mice (Laboratory), weighing about 20 g, were used in whole experiment. Mice were housed ten per box of the same sex. This part of experiment and analysis obtained from is made on twenty eight male BALB mice.
Three types of formulated mixtures were manufactured: • Labodiet MLF control. The receipt of this food is based on the energy needs according to the Polish norm for feeding domestic animals. • Labodiet MLF 2% n Povex. The receipt of this food is based one the control one. The food was enriched with 2% of Povex. • Labodiet MLF 2% praz Povex. The receipt of this food is based one the control one. The food was enriched with 2% of heated Povex till 160° C.
Before the beginning of the experiment, we measured water consumption in 24 hours of 5 groups of mice. The average of daily-consumption was 10 mL/day/kg b.w. This consumption was used to calculate the concentration of the two doses of acrylamide: The high dose was calculated from 2 mg/day/kg b.w. and the low dose from 0.1 mg/day/kg b.w. The first dilution of acrylamide in tap water was made directly with the powder and 3 L of both concentrations were prepared. […] The volume left in the bottle was measured and put in a table to follow the consumption of acrylamide through the water. […]

In the case of C=CC(N)=O [Acryl amide, acryl amide], the “histomorphological parameters of the intestine and liver” value (BALB mice) is reported as “affected a majority of the measured histomorphological parameters”, the “number of mitosis inside small intestine crypt” value ([1]; small and large dose of AA with standard food vs control group) is reported as “significant decrease” and the “number of apoptosis/mm^2 in small intestine tissue” value ([1]; standard food + large or low dose of AA) is reported as “elevated number of apoptotic cells”. For the same compound, the “fractal dimension of small intestine mucosa” value ([1]; standard food and low dose of AA (0.1 mg) vs control group) was “difference between control group and animals getting standard food and low dose of AA”.
